# From patent publication US9359418B2, “Inhibitors of the T cell-specific alternative p38 activation pathway and methods of use” (The United States of America, as represented by the …, priority 2012, dated 2016)
# “Also recorded” adds a separate entry of the source.
# Columns and labels:
# Naïve CD4+ T cells = assay: Th1 differentiation of naïve CD4+ T cells; type: cell-based; conditions: 2 μM; Th0 or Th1 polarizing conditions 3 days; relative to medium or (11R)-Ctrl
# Procedure: FIGS. 5A-5D are a series of flow cytometry plots showing (11R)-71-85 inhibits Th1 differentiation. Naïve CD4^+ T cells were treated with either 2 μM of (11R)-71-85 or (11R)-Ctrl for two hours and after washing, cells were stimulated with anti-CD3 plus anti-CD28 in Th0 (neutral, FIG. 5A and FIG. 5C) or Th1 polarizing conditions (FIG. 5B and FIG. 5D) for 3 days. Cells were treated again with the same concentration of either medium (first column), (11R)-Ctrl (second column), or (11R)-71-85 (third column) for 2 hours and restimulated with PMA plus ionomycin in the presence of Golgi inhibitor for 4 hours. Expression of T bet and interferon (IFN)-γ (indicators of Th1 cells typical of a pro-inflammatory response) was analyzed by flow cytometry.
# Additional studies were carried out to evaluate the effect of (11R)-71-85 on T helper (Th) cell differentiation. Expression of IFN-γ and T-bet was used as an indicator of Th1 cells typical of a pro-inflammatory response. Naïve CD4^+ T cells were treated with either medium or 2 μM of (11R)-71-85 or (11R)-Ctrl for two hours and after washing, cells were stimulated with anti-CD3 plus anti-CD28 in Th0 (neutral) or Th1 polarizing conditions for 3 days. […] Expression of T bet and IFNγ was analyzed by flow cytometry (FIGS. 5A-5D).
# Irf4 mRNA = Irf4 mRNA in splenocytes after intraperitoneal injection; type: in vivo, mice; conditions: 40 μg intraperitoneally; splenocytes 4 hours after injection, anti-CD3 plus anti-CD28 24 hours; versus vehicle control
# Procedure: FIG. 7 is a graph showing expression of interferon regulatory factor 4 (Irf4) mRNA following in vivo treatment with (11R)-71-85. (11R)-71-85 (40 μg) or vehicle control was injected intraperitoneally into wild type mice. Four hours after injection, splenocytes were collected and stimulated with soluble anti-CD3 plus anti-CD28 for 24 hours. Irf4 mRNA expression was assessed by quantitative real time PCR.
# (11R)-71-85 (40 μg) or vehicle control was injected intraperitoneally into wild type mice. Four hours after injection, splenocytes were collected and stimulated with soluble anti-CD3 plus anti-CD28 for 24 hours. Irf4 mRNA expression was assessed by quantitative real time PCR.
# PANC02 tumors = assay: PANC02 model, tumor vascularization (CD31 staining); type: in vivo; conditions: 80 μg intra-tumor every other day for 2.5 weeks; compared with control treated mice
# Procedure: FIG. 11 is a pair of images showing that intra-tumor injection of (11R)-71-85 reduces tumor vascularization. WT C57BL/6 mice were injected with 7.5×10^5 PANC02 cells and 16 days later were injected with 80 μg of either (11R)-71-85 or (11R)-Scrambled. Mice received intra-tumor injections every other day for 2.5 weeks. Twenty-four hours after the last injection, tumors were collected, fixed in formalin, and stained for the endothelial marker CD31, an indicator of tumor vascularization.
# Tumor vascularization was also assessed in WT mice treated with (11R)-71-85. WT C57BL/6 mice were injected with 7.5×10^5 PANC02 cells. After 16 days, mice received intra-tumor injections of 80 μg of (11R)-71-85 or (11R)-Scrambled every other day for 2.5 weeks. Twenty-four hours after the last injection, tumors were collected, fixed in formalin, and stained for the endothelial marker CD31, an indicator for tumor vascularization.
# KPC mice = assay: KPC mice, PanIN progression and cancer formation after intravenous treatment; type: in vivo
# Procedure: FIGS. 13A-13D are graphs showing that (11R)-71-85 inhibits PanIN and cancer formation in KPC mice. (FIG. 13A) KPC mice were sub-lethally irradiated at 6 weeks of age and packed with 10×10^6 hematopoietic bone marrow cells and the survival was monitored (n=5 per group; *p<0.05, Log-rank test). (FIG. 13B) Quantification of normal ducts and PanIN of KPC mice treated as in (A) (n=6 per group). (FIG. 13C) CD4^+ T cells infiltrated in the pancreas were analyzed for TNFα and IFNγ expression by flow cytometry after treatment with (11R) 71-85 or (11R) Scr. Bar graphs show the average percentage of indicated cytokine secreting cells. (n=8 per group; *p<0.05, NS=not significant, unpaired two-tailed Student's t-test). (FIG. 13D) KPC mice were treated as in (A) and the expression of different tumor promoting factors was analyzed in isolated pancreatic epithelial cells by quantitative real-time PCR (n=6 per group).
# KPC mice provide a genetic model of murine pancreatic tumors that closely mimics the human disease. KPC (KrasG12D/^+; LSLTrp53R172H/^+; Pdx-1-Cre) mice express K-ras in pancreatic epithelium, and when made heterozygous for p53, develop spontaneous tumors starting at approximately 8-10 weeks of age (Hingorani et al., Cancer Cell 7(5):469-483, 2005). This involves the formation of pancreatic intraepithelial neoplasia precursor lesions (PanIN) and progression to fully-developed carcinoma with surrounding stromal and inflammatory reactions (Hingorani et al., Cancer Cell 7(5):469-483, 2005).
# Given these findings, further experiments were conducted to determine if inhibition of the alternative pathway in KPC mice would alter disease progression. KPC mice were treated with intravenous (11R)-71-85 or (11R)-Scrambled starting at 9 weeks of age, and the pancreas was histologically evaluated 3.5 weeks later. Thirty-three percent (2 of 6) of mice treated with (11R)-Scrambled developed invasive carcinoma in the pancreas. […] In line with the reduced TNFα secretion, Irf4 mRNA expression was decreased in CD4^+ TILs after (11R)-71-85 treatment. […] The fact that early stage PanIN formation was present, but later pre-invasive stages were reduced, in (11R)-71-85-treated mice supports a role for T cell-derived TNFα in the progression of PanIN towards invasive carcinoma.
# [1] = intravenous, compared to control
substance,measurement,setting,value
"(11R)-71-85: fusion protein: 11 arginine residues added to the N-terminus of the Gadd45α 71-85 peptide (LQIHFTLIQAFCCEN; N-terminal 11 arginine; UniProt P24522 71-85, looked up, fragment)",expression of IFN-γ,Naïve CD4+ T cells,reduced expression; also recorded: blunted
same,expression of T-bet,Naïve CD4+ T cells,reduced expression; also recorded: blunted
same,Irf4 mRNA expression,Irf4 mRNA,significantly inhibited
same,CD31 staining (tumor vascularization),PANC02 tumors,significant reduction
same,Irf4 mRNA expression in CD4+ TILs,KPC mice; intravenous,decreased
same,"progression towards high grade PanIN formation (PanIN3, carcinoma in situ)","KPC mice; intravenous from 9 weeks of age, 3.5 weeks",slowed
same,mice that developed invasive carcinoma in the pancreas,"KPC mice; intravenous from 9 weeks of age, histology 3.5 weeks later",no mice
same,intrapancreatic fibro-inflammatory reaction (H&E),"KPC mice; intravenous, compared to (11R)-Scrambled",reduced
same,CD4+ tumor infiltrating lymphocytes expressing TNFα,KPC mice; [1],reduced numbers
same,expression of IFNγ in CD4+ tumor infiltrating lymphocytes,KPC mice; [1],slightly reduced
same,expression of Cc12 in pancreatic epithelial cells,KPC mice; quantitative real-time PCR,reduced
same,expression of Cc15 in pancreatic epithelial cells,KPC mice; quantitative real-time PCR,reduced
same,expression of Tgfβ in pancreatic epithelial cells,KPC mice; quantitative real-time PCR,reduced
same,expression of Vegf in pancreatic epithelial cells,KPC mice; quantitative real-time PCR,reduced
